{
  "source": "paper PMC6886798",
  "about": "“Expression of myeloid Src-family kinases is associated with poor prognosis in AML and influences Flt3-ITD kinase inhibitor acquired resistance” (PLoS ONE, 2019)",
  "experiment_in_all_cases": "KINOMEscan",
  "type_in_all_cases": "binding",
  "conditions_in_all_cases": "1.0 µM",
  "key": {"[1]": {"target": "T1, ABL1(Q252H)-phosphorylated (Homo sapiens, UniProt P00519, Q252H)", "T1 construct": "purchased Eurofins/DiscoverX KINOMEscan scanMAX", "description": "(§1) Kinase retention to the immobilized ligand is then measured using quantitative real-time PCR for each kinase-specific DNA barcode."}, "[2]": {"target": "T2, ABL1(T315I)-phosphorylated (Homo sapiens, UniProt P00519, T315I)", "T2 construct": "purchased Eurofins/DiscoverX KINOMEscan scanMAX", "description": "as §1"}, "[3]": {"target": "T3, AMPK-alpha2 (Homo sapiens, UniProt P54646)", "T3 construct": "purchased Eurofins/DiscoverX KINOMEscan scanMAX", "description": "as §1"}, "[4]": {"target": "T4, AXL (Homo sapiens, UniProt P30530)", "T4 construct": "purchased Eurofins/DiscoverX KINOMEscan scanMAX", "description": "as §1"}, "[5]": {"target": "T5, BLK (Homo sapiens, UniProt P51451)", "T5 construct": "purchased Eurofins/DiscoverX KINOMEscan scanMAX", "description": "as §1"}, "[6]": {"target": "T6, BRSK1 (Homo sapiens, UniProt Q8TDC3)", "T6 construct": "purchased Eurofins/DiscoverX KINOMEscan scanMAX", "description": "as §1"}, "[7]": {"target": "T7, CSNK2A2 (Homo sapiens, UniProt P19784)", "T7 construct": "purchased Eurofins/DiscoverX KINOMEscan scanMAX", "description": "as §1"}, "[8]": {"target": "T8, DMPK (Homo sapiens, UniProt Q09013)", "T8 construct": "purchased Eurofins/DiscoverX KINOMEscan scanMAX", "description": "as §1"}, "[9]": {"target": "T9, DMPK2 (Homo sapiens, UniProt Q6DT37)", "T9 construct": "purchased Eurofins/DiscoverX KINOMEscan scanMAX", "description": "as §1"}, "[10]": {"target": "T10, EPHB6 (Homo sapiens, UniProt O15197)", "T10 construct": "purchased Eurofins/DiscoverX KINOMEscan scanMAX", "description": "as §1"}, "[11]": {"target": "T11, ERBB2 (Homo sapiens, UniProt P04626)", "T11 construct": "purchased Eurofins/DiscoverX KINOMEscan scanMAX", "description": "as §1"}, "[12]": {"target": "T12, ERBB3 (Homo sapiens, UniProt P21860)", "T12 construct": "purchased Eurofins/DiscoverX KINOMEscan scanMAX", "description": "as §1"}, "[13]": {"target": "T13, ERBB4 (Homo sapiens, UniProt Q15303)", "T13 construct": "purchased Eurofins/DiscoverX KINOMEscan scanMAX", "description": "as §1"}, "[14]": {"target": "T14, FAK (Homo sapiens, UniProt Q05397)", "T14 construct": "purchased Eurofins/DiscoverX KINOMEscan scanMAX", "description": "as §1"}, "[15]": {"target": "T15, FGFR3 (Homo sapiens, UniProt P22607)", "T15 construct": "purchased Eurofins/DiscoverX KINOMEscan scanMAX", "description": "as §1"}, "[16]": {"target": "T16, GRK1 (Homo sapiens, UniProt Q15835)", "T16 construct": "purchased Eurofins/DiscoverX KINOMEscan scanMAX", "description": "as §1"}, "[17]": {"target": "T17, GRK7 (Homo sapiens, UniProt Q8WTQ7)", "T17 construct": "purchased Eurofins/DiscoverX KINOMEscan scanMAX", "description": "as §1"}, "[18]": {"target": "T18, HASPIN (Homo sapiens, UniProt Q8TF76)", "T18 construct": "purchased Eurofins/DiscoverX KINOMEscan scanMAX", "description": "as §1"}, "[19]": {"target": "T19, HIPK1 (Homo sapiens, UniProt Q86Z02)", "T19 construct": "purchased Eurofins/DiscoverX KINOMEscan scanMAX", "description": "as §1"}, "[20]": {"target": "T20, HIPK2 (Homo sapiens, UniProt Q9H2X6)", "T20 construct": "purchased Eurofins/DiscoverX KINOMEscan scanMAX", "T20 sequence (Q9H2X6 whole entry)": "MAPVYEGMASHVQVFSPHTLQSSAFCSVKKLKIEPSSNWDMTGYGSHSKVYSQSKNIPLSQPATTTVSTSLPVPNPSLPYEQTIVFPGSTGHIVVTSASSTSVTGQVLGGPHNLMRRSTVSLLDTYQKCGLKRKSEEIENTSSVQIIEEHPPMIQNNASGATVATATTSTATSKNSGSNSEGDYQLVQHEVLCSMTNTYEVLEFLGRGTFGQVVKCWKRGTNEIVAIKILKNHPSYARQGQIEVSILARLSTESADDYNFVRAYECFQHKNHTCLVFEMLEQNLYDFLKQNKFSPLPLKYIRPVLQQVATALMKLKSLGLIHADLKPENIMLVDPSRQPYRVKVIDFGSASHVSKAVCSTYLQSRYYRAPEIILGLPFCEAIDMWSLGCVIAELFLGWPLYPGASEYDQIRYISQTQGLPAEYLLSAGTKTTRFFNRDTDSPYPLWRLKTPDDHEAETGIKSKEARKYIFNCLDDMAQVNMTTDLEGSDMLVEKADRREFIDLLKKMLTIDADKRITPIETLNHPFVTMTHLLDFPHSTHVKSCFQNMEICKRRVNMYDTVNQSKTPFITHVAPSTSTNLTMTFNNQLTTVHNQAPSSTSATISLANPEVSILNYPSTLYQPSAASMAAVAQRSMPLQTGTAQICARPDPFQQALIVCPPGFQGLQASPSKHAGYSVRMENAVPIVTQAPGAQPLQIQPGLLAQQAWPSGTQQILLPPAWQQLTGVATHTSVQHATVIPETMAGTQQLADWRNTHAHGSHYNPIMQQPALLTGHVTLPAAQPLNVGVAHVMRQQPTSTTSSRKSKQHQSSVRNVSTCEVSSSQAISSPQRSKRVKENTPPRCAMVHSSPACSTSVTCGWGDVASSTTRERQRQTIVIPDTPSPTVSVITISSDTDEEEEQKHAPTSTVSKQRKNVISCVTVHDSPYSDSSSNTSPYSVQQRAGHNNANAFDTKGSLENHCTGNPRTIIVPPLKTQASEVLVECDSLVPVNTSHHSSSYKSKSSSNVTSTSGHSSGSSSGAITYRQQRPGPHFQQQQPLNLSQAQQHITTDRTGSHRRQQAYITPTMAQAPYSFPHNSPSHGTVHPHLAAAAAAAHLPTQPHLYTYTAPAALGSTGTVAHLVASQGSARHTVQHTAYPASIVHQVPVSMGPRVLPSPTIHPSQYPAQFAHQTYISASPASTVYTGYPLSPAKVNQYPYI", "description": "as §1"}, "[21]": {"target": "T21, JNK2 (Homo sapiens, UniProt P45984)", "T21 construct": "purchased Eurofins/DiscoverX KINOMEscan scanMAX", "description": "as §1"}, "[22]": {"target": "T22, LIMK1 (Homo sapiens, UniProt P53667)", "T22 construct": "purchased Eurofins/DiscoverX KINOMEscan scanMAX", "T22 sequence (P53667 whole entry)": "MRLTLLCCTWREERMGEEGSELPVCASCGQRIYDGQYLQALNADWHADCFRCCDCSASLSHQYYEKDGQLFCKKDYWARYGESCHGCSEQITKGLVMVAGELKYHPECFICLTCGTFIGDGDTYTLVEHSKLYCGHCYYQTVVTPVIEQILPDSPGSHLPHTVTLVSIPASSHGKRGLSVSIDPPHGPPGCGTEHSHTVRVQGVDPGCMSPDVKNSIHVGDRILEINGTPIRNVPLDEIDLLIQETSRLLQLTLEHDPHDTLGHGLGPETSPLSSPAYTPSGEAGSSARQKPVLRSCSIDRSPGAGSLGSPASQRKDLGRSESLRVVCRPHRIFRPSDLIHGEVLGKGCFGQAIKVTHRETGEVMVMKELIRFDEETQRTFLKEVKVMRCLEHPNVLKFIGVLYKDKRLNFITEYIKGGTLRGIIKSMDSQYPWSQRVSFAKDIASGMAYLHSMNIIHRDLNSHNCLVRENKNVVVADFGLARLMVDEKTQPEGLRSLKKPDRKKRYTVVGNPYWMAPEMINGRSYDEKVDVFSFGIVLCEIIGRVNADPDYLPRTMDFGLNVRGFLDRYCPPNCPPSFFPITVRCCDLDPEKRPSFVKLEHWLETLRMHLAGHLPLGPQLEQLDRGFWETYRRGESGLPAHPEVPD", "description": "as §1"}, "[23]": {"target": "T23, MAP4K5 (Homo sapiens, UniProt Q9Y4K4)", "T23 construct": "purchased Eurofins/DiscoverX KINOMEscan scanMAX", "T23 sequence (Q9Y4K4 whole entry)": "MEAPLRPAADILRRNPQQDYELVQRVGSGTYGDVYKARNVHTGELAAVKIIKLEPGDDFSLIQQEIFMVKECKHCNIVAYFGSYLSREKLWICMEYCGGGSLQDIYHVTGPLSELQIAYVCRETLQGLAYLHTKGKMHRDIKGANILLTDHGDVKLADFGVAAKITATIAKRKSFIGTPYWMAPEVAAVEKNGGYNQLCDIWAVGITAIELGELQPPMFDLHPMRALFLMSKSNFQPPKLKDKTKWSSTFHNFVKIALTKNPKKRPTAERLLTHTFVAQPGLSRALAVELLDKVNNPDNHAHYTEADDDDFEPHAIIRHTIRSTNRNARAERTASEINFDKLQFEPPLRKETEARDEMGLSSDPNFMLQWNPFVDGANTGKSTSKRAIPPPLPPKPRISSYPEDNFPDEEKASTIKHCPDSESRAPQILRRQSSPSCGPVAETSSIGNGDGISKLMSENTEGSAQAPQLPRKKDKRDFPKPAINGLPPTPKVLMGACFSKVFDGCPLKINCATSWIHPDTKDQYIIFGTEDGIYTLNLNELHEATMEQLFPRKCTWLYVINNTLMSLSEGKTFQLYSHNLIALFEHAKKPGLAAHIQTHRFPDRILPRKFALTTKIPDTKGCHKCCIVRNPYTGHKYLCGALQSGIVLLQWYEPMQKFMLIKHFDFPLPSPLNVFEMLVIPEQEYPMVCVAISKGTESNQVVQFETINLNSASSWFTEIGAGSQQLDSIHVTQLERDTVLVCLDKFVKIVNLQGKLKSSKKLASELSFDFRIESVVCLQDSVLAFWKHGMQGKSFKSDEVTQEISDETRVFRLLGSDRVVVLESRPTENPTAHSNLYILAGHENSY", "description": "as §1"}, "[24]": {"target": "T24, MARK3 (Homo sapiens, UniProt P27448)", "T24 construct": "purchased Eurofins/DiscoverX KINOMEscan scanMAX", "description": "as §1"}, "[25]": {"target": "T25, MTOR (Homo sapiens, UniProt P42345)", "T25 construct": "purchased Eurofins/DiscoverX KINOMEscan scanMAX", "description": "as §1"}, "[26]": {"target": "T26, MYLK4 (Homo sapiens, UniProt Q86YV6)", "T26 construct": "purchased Eurofins/DiscoverX KINOMEscan scanMAX", "description": "as §1"}, "[27]": {"target": "T27, NDR2 (Homo sapiens, UniProt Q9Y2H1)", "T27 construct": "purchased Eurofins/DiscoverX KINOMEscan scanMAX", "description": "as §1"}, "[28]": {"target": "T28, NEK11 (Homo sapiens, UniProt Q8NG66)", "T28 construct": "purchased Eurofins/DiscoverX KINOMEscan scanMAX", "description": "as §1"}, "[29]": {"target": "T29, PCTK1 (Homo sapiens, UniProt Q00536)", "T29 construct": "purchased Eurofins/DiscoverX KINOMEscan scanMAX", "description": "as §1"}, "[30]": {"target": "T30, PFCDPK1(P.falciparum) (Plasmodium falciparum, UniProt P62344)", "T30 construct": "purchased Eurofins/DiscoverX KINOMEscan scanMAX", "description": "as §1"}, "[31]": {"target": "T31, PIK3CA (Homo sapiens, UniProt P42336)", "T31 construct": "purchased Eurofins/DiscoverX KINOMEscan scanMAX", "T31 sequence (P42336 whole entry)": "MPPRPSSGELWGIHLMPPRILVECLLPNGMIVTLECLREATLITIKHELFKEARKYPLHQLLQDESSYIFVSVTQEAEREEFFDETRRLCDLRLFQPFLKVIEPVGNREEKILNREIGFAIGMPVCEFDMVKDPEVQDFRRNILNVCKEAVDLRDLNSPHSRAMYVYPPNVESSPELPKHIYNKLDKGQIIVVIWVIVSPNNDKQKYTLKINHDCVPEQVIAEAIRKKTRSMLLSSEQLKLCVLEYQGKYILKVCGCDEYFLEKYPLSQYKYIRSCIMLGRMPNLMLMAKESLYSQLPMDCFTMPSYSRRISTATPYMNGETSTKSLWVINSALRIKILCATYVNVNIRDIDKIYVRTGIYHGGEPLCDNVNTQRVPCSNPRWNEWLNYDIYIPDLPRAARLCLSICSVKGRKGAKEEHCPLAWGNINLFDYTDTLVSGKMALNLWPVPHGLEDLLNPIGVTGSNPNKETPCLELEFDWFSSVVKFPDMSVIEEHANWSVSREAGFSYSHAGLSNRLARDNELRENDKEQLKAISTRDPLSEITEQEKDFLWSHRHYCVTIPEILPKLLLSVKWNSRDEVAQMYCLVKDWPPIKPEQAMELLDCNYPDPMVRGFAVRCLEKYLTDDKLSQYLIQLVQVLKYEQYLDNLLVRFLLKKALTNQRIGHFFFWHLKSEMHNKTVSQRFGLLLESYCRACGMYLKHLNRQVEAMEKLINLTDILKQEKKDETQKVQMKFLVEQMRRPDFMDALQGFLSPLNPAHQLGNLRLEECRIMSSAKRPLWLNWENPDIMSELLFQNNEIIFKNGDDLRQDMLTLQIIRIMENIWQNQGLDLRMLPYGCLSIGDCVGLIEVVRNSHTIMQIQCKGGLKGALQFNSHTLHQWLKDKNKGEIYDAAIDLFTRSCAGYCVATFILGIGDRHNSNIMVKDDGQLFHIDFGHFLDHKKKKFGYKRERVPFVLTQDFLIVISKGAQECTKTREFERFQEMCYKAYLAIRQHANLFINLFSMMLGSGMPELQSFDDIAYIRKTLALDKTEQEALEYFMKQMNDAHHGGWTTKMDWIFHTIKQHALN", "description": "as §1"}, "[32]": {"target": "T32, PIK3CG (Homo sapiens, UniProt P48736)", "T32 construct": "purchased Eurofins/DiscoverX KINOMEscan scanMAX", "description": "as §1"}, "[33]": {"target": "T33, PLK2 (Homo sapiens, UniProt Q9NYY3)", "T33 construct": "purchased Eurofins/DiscoverX KINOMEscan scanMAX", "description": "as §1"}, "[34]": {"target": "T34, RIPK2 (Homo sapiens, UniProt O43353)", "T34 construct": "purchased Eurofins/DiscoverX KINOMEscan scanMAX", "T34 sequence (O43353 whole entry)": "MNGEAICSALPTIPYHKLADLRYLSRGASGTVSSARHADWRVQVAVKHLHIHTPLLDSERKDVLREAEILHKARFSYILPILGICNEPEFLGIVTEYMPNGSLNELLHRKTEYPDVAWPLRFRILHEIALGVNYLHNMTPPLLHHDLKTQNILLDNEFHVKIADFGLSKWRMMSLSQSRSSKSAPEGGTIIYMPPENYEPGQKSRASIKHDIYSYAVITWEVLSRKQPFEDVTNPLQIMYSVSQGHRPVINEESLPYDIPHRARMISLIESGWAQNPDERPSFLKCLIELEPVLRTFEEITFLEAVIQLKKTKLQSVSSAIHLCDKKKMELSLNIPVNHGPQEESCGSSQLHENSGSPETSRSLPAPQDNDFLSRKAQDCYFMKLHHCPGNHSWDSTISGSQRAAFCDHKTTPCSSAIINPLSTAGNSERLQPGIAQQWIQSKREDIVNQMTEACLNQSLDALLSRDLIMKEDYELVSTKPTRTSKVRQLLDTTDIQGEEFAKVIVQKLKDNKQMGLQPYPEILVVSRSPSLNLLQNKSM", "description": "as §1"}, "[35]": {"target": "T35, RIPK5 (Homo sapiens, UniProt Q6XUX3)", "T35 construct": "purchased Eurofins/DiscoverX KINOMEscan scanMAX", "description": "as §1"}, "[36]": {"target": "T36, SGK3 (Homo sapiens, UniProt Q96BR1)", "T36 construct": "purchased Eurofins/DiscoverX KINOMEscan scanMAX", "T36 sequence (Q96BR1 whole entry)": "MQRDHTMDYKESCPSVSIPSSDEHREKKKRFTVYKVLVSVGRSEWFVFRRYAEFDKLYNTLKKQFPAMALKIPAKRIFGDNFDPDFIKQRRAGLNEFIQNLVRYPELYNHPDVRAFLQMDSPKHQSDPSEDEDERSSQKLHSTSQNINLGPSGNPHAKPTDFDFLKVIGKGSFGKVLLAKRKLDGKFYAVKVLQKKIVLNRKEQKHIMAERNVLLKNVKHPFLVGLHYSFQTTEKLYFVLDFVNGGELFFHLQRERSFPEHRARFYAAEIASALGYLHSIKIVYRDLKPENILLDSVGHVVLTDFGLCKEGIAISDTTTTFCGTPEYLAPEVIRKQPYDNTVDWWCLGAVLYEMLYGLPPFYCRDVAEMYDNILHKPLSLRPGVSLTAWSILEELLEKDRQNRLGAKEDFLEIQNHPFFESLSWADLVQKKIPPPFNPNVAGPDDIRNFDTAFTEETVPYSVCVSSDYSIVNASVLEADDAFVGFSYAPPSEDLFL", "description": "as §1"}, "[37]": {"target": "T37, SIK (Homo sapiens, UniProt P57059)", "T37 construct": "purchased Eurofins/DiscoverX KINOMEscan scanMAX", "description": "as §1"}, "[38]": {"target": "T38, SNARK (Homo sapiens, UniProt Q9H093)", "T38 construct": "purchased Eurofins/DiscoverX KINOMEscan scanMAX", "description": "as §1"}, "[39]": {"target": "T39, TLK1 (Homo sapiens, UniProt Q9UKI8)", "T39 construct": "purchased Eurofins/DiscoverX KINOMEscan scanMAX", "description": "as §1"}, "[40]": {"target": "T40, TRKC (Homo sapiens, UniProt Q16288)", "T40 construct": "DNA tag (qPCR barcode); purchased Eurofins/DiscoverX KINOMEscan scanMAX", "description": "as §1"}, "[41]": {"target": "T41, TYK2(JH1domain-catalytic) (Homo sapiens, UniProt P29597)", "T41 construct": "TYK2(JH1domain-catalytic); DNA tag (qPCR barcode); purchased Eurofins/DiscoverX KINOMEscan scanMAX", "T41 sequence (P29597 897-1176 limits assumed)": "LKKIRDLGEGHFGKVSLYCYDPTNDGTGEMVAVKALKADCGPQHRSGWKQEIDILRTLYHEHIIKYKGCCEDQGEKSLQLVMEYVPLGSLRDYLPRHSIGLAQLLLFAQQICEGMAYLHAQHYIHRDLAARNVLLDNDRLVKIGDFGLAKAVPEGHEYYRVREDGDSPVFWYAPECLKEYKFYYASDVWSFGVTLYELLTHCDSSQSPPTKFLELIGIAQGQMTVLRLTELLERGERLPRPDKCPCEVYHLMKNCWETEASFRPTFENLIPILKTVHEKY", "description": "as §1"}, "[42]": {"target": "T42, WEE2 (Homo sapiens, UniProt P0C1S8)", "T42 construct": "DNA tag (qPCR barcode); purchased Eurofins/DiscoverX KINOMEscan scanMAX", "description": "as §1"}},
  "data": [
    {"smiles": "CN1CCN(C2CCC(n3cc(-c4ccc(Oc5ccccc5)cc4)c4c(N)ncnc43)CC2)CC1", "note": "(stereo not drawn) [A-419259]", "values": [
      {"measurement": "% Control", "setting": "[1]", "value": 0.5, "unit": "%"},
      {"measurement": "% Control", "setting": "[2]", "value": 83, "unit": "%"},
      {"measurement": "% Control", "setting": "[3]", "value": 42, "unit": "%"},
      {"measurement": "% Control", "setting": "[4]", "value": 6.1, "unit": "%"},
      {"measurement": "% Control", "setting": "[5]", "value": 0.05, "unit": "%"},
      {"measurement": "% Control", "setting": "[6]", "value": 14, "unit": "%"},
      {"measurement": "% Control", "setting": "[7]", "value": 66, "unit": "%"},
      {"measurement": "% Control", "setting": "[8]", "value": 100, "unit": "%"},
      {"measurement": "% Control", "setting": "[9]", "value": 36, "unit": "%"},
      {"measurement": "% Control", "setting": "[10]", "value": 6.8, "unit": "%"},
      {"measurement": "% Control", "setting": "[11]", "value": 2.7, "unit": "%"},
      {"measurement": "% Control", "setting": "[12]", "value": 0.2, "unit": "%"},
      {"measurement": "% Control", "setting": "[13]", "value": 0, "unit": "%"},
      {"measurement": "% Control", "setting": "[14]", "value": 72, "unit": "%"},
      {"measurement": "% Control", "setting": "[15]", "value": 30, "unit": "%"},
      {"measurement": "% Control", "setting": "[16]", "value": 100, "unit": "%"},
      {"measurement": "% Control", "setting": "[17]", "value": 62, "unit": "%"},
      {"measurement": "% Control", "setting": "[18]", "value": 70, "unit": "%"},
      {"measurement": "% Control", "setting": "[19]", "value": 80, "unit": "%"},
      {"measurement": "% Control", "setting": "[20]", "value": 100, "unit": "%"},
      {"measurement": "% Control", "setting": "[21]", "value": 94, "unit": "%"},
      {"measurement": "% Control", "setting": "[22]", "value": 31, "unit": "%"},
      {"measurement": "% Control", "setting": "[23]", "value": 9.2, "unit": "%"},
      {"measurement": "% Control", "setting": "[24]", "value": 83, "unit": "%"},
      {"measurement": "% Control", "setting": "[25]", "value": 90, "unit": "%"},
      {"measurement": "% Control", "setting": "[26]", "value": 96, "unit": "%"},
      {"measurement": "% Control", "setting": "[27]", "value": 80, "unit": "%"},
      {"measurement": "% Control", "setting": "[28]", "value": 77, "unit": "%"},
      {"measurement": "% Control", "setting": "[29]", "value": 99, "unit": "%"},
      {"measurement": "% Control", "setting": "[30]", "value": 0, "unit": "%"},
      {"measurement": "% Control", "setting": "[31]", "value": 100, "unit": "%"},
      {"measurement": "% Control", "setting": "[32]", "value": 61, "unit": "%"},
      {"measurement": "% Control", "setting": "[33]", "value": 77, "unit": "%"},
      {"measurement": "% Control", "setting": "[34]", "value": 3.6, "unit": "%"},
      {"measurement": "% Control", "setting": "[35]", "value": 7.1, "unit": "%"},
      {"measurement": "% Control", "setting": "[36]", "value": 77, "unit": "%"},
      {"measurement": "% Control", "setting": "[37]", "value": 2.1, "unit": "%"},
      {"measurement": "% Control", "setting": "[38]", "value": 26, "unit": "%"},
      {"measurement": "% Control", "setting": "[39]", "value": 93, "unit": "%"},
      {"measurement": "% Control", "setting": "[40]", "value": 45, "unit": "%"},
      {"measurement": "% Control", "setting": "[41]", "value": 100, "unit": "%"},
      {"measurement": "% Control", "setting": "[42]", "value": 90, "unit": "%"}
    ]}
  ]
}
